Laboratory results as given in US20240199598A1 (MITOIMMUNE THERAPEUTICS INC., priority 2021, published 2024).
Like-named read-outs stand apart in the source and are kept apart here.

Experiments:
[1] = Physicochemical stability test of free form and 5 salts (60° C., 40° C./75% humidity, light); conditions: for Final purity: HPLC
Procedure: In the case of a light stability test, the vial was stored in a light stability test chamber while being not closed with a lid, and exposed to a total illuminance of 1.2 million lux-hr. A vial light-shielded with aluminum foil was used as an experimental control (Dark control). For stability assessment, state assessment by visual observation, purity assessment using HPLC, and crystalline form assessment using XRPD were conducted, and results thereof are shown in Table 7. […] In FIGS. 19 to 30, “Light” represents light irradiation condition results.

[2] = Solubility of compound of Chemical Formula 1 in various solvents; type: physicochemical
From the text: Very low solubility in various solvents adversely affects pharmaceutical development that requires the production of a finished product in a completely dissolved state.

[3] = Oral administration pharmacokinetic test using mice
pKa, UV-metric method = type: physicochemical
From the text: As shown in the following Table 2, each combination of counter ions and solvents were given a batch number.

[4] = 1.2 million lux-hr, listed as Free form of compound 1
[5] = 40° C./75% RH, 1 w, listed as Free form of compound 1
[6] = 60° C., 1 w, listed as Free form of compound 1
[7] = Dark control, listed as Free form of compound 1

In the case of `O=S1(=O)CCN(Cc2cc(NC3CCOCC3)c3[nH]c(-c4ccccc4)cc3c2)CC1` [compound of Chemical Formula 1, 5-[(1,1-dioxido-4-thiomorpholinyl)methyl]-2-phenyl-N-(tetrahydro-2H-pyran-4-yl)-1H-indol-7-amine], the Appearance ([1]; 1.2 million lux-hr (light stability), listed as Free form of compound 1) is reported as “White powder”, the Final purity [1, 4] is reported as 99.89% and the Assay [1, 4] is reported as 107.41%. For the same molecule, the Purity change [1, 4] was “+0.13%”, the XRPD patterns [1, 4] was “Pattern A” and the Final purity [1, 5] was 99.95%. For the same molecule, the Assay [1, 5] was 110.59%, the Purity change [1, 5] was “+0.19%” and the XRPD patterns [1, 5] was “Pattern A”. The “Chemical stability (purity change %/1 w), 40° C./75% RH” value ([1]; 40° C./75% RH, 1 w, summary Table 9, listed as Free form of compound of Chemical Formula 1) was 0.19%, the Final purity [1, 6] was 99.94% and the Assay [1, 6] was 105.89%. For the same molecule, the Purity change [1, 6] was “+0.18%”, the XRPD patterns [1, 6] was “Pattern A” and the “Chemical stability (purity change %/1 w), 60° C.” value ([1]; 60° C., 1 w, summary Table 9, listed as Free form of compound of Chemical Formula 1) was 0.18%. The Appearance ([1]; Dark control (light-shielded vial)) was “White powder”, the Final purity [1, 7] was 99.94% and the Assay [1, 7] was 109.40%. The Purity change [1, 7] was “+0.18%”, the XRPD patterns [1, 7] was “Pattern A” and the “Chemical stability (purity change %/1 w), Light stability” value ([1]; light stability, summary Table 9, listed as Free form of compound of Chemical Formula 1) was 0.13%. The solubility ([2]; Heptane, 25° C.) was “<LOQ”, the solubility ([2]; Heptane, 50° C.) was “<LOQ” and the solubility ([2]; Water, 25° C., read-out: Solubility) was 1 µg/mL. For the same molecule, the solubility ([2]; Water, 50° C., read-out: Solubility) was 46 µg/mL, the solubility ([2]; aqueous with cosolvent or surfactant or cyclodextrin, Acetic acid-water (1:1), 25° C., read-out: Solubility) was 52800 µg/mL and the solubility ([2]; aqueous with cosolvent or surfactant or cyclodextrin, Acetic acid-water (1:1), 50° C., read-out: Solubility) was 75600 µg/mL. It also gave a solubility ([2]; aqueous with cosolvent or surfactant or cyclodextrin, Acetone-water (1:2), 25° C., read-out: Solubility) of 80 µg/mL, a solubility ([2]; aqueous with cosolvent or surfactant or cyclodextrin, Acetone-water (1:2), 50° C., read-out: Solubility) of 160 µg/mL and a solubility ([2]; aqueous with cosolvent or surfactant or cyclodextrin, MeOH/water = 1:1 (v/v), 25° C., read-out: Solubility) of 30 µg/mL. It also gave a solubility ([2]; aqueous with cosolvent or surfactant or cyclodextrin, MeOH/water = 1:1 (v/v), 50° C., read-out: Solubility) of 80 µg/mL, a solubility ([2]; organic solvent or mixture, 1-Butanol, 25° C., read-out: Solubility) of 650 µg/mL and a solubility ([2]; organic solvent or mixture, 1-Butanol, 50° C., read-out: Solubility) of 1000 µg/mL. For the same molecule, the solubility ([2]; organic solvent or mixture, 2-Methyltetrahydrofuran (2-MeTHF), 25° C., read-out: Solubility) was 2780 µg/mL, the solubility ([2]; organic solvent or mixture, 2-Methyltetrahydrofuran (2-MeTHF), 50° C., read-out: Solubility) was 3410 µg/mL and the solubility ([2]; organic solvent or mixture, Acetone, 25° C., read-out: Solubility) was 5290 µg/mL. The solubility ([2]; organic solvent or mixture, Acetone, 50° C., read-out: Solubility) was 17500 µg/mL, the solubility ([2]; organic solvent or mixture, Acetonitrile (ACN), 25° C., read-out: Solubility) was 3090 µg/mL and the solubility ([2]; organic solvent or mixture, Acetonitrile (ACN), 50° C., read-out: Solubility) was 4040 µg/mL. For the same molecule, the solubility ([2]; organic solvent or mixture, Chloroform (CHCl3), 25° C., read-out: Solubility) was 4700 µg/mL, the solubility ([2]; organic solvent or mixture, Chloroform (CHCl3), 50° C., read-out: Solubility) was 4620 µg/mL and the solubility ([2]; organic solvent or mixture, Dimethyl sulfoxide (DMSO), 25° C., read-out: Solubility) was 43400 µg/mL. The solubility ([2]; organic solvent or mixture, Dimethyl sulfoxide (DMSO), 50° C., read-out: Solubility) was 238000 µg/mL, the solubility ([2]; organic solvent or mixture, Ethanol (EtOH), 25° C., read-out: Solubility) was 1410 µg/mL and the solubility ([2]; organic solvent or mixture, Ethanol (EtOH), 50° C., read-out: Solubility) was 1080 µg/mL. It also gave a solubility ([2]; organic solvent or mixture, Ethyl acetate (EtOAc), 25° C., read-out: Solubility) of 1360 µg/mL, a solubility ([2]; organic solvent or mixture, Ethyl acetate (EtOAc), 50° C., read-out: Solubility) of 1860 µg/mL and a solubility ([2]; organic solvent or mixture, Isopropanol (IPA), 25° C., read-out: Solubility) of 320 µg/mL. For the same molecule, the solubility ([2]; organic solvent or mixture, Isopropanol (IPA), 50° C., read-out: Solubility) was 540 µg/mL, the solubility ([2]; organic solvent or mixture, Isopropyl acetate (iPrOAc), 25° C., read-out: Solubility) was 710 µg/mL and the solubility ([2]; organic solvent or mixture, Isopropyl acetate (iPrOAc), 50° C., read-out: Solubility) was 910 µg/mL. For the same molecule, the solubility ([2]; organic solvent or mixture, Methanol (MeOH), 25° C., read-out: Solubility) was 590 µg/mL, the solubility ([2]; organic solvent or mixture, Methanol (MeOH), 50° C., read-out: Solubility) was 1150 µg/mL and the solubility ([2]; organic solvent or mixture, Methyl ethyl ketone (MEK), 25° C., read-out: Solubility) was 6080 µg/mL. The solubility ([2]; organic solvent or mixture, Methyl ethyl ketone (MEK), 50° C., read-out: Solubility) was 8120 µg/mL, the solubility ([2]; organic solvent or mixture, Methyl isobutyl ketone (MIBK), 25° C., read-out: Solubility) was 2100 µg/mL and the solubility ([2]; organic solvent or mixture, Methyl isobutyl ketone (MIBK), 50° C., read-out: Solubility) was 2820 µg/mL. The solubility ([2]; organic solvent or mixture, Methyl tert-butyl ether (MTBE), 25° C., read-out: Solubility) was 60 µg/mL, the solubility ([2]; organic solvent or mixture, Methyl tert-butyl ether (MTBE), 50° C., read-out: Solubility) was 70 µg/mL and the solubility ([2]; organic solvent or mixture, N,N-dimethylformamide (DMF), 50° C., read-out: Solubility) was 333000 µg/mL. For the same molecule, the solubility ([2]; organic solvent or mixture, N-methyl pyrrolidone (NMP), 25° C., read-out: Solubility) was 160000 µg/mL, the solubility ([2]; organic solvent or mixture, N-methyl pyrrolidone (NMP), 50° C., read-out: Solubility) was 192000 µg/mL and the solubility ([2]; organic solvent or mixture, Tetrahydrofuran (THF), 25° C., read-out: Solubility) was 17400 µg/mL. The solubility ([2]; organic solvent or mixture, Tetrahydrofuran (THF), 50° C., read-out: Solubility) was 16300 µg/mL, the solubility ([2]; organic solvent or mixture, Toluene, 25° C., read-out: Solubility) was 20 µg/mL and the solubility ([2]; organic solvent or mixture, Toluene, 50° C., read-out: Solubility) was 20 µg/mL. The Cmax ([3]; mice, oral, 10 mg/kg, listed as Free) was 1015.2 ng/mL, the t½ ([3]; mice, oral, 10 mg/kg, listed as free form) was 72 min and the AUClast ([3]; mice, oral, 10 mg/kg, listed as free form of the compound of Chemical Formula 1, 10 mg/kg) was 3603.9 ng·h/mL. For the same molecule, the “Pharmacokinetic test, t½” value ([3]; mice, oral, summary Table 9, listed as Free form of compound of Chemical Formula 1) was 60 min, the Tmax ([3]; mouse, in vivo, po, 10 mg/kg) was 30 min and the pKa (pKa, UV-metric method) was 4.5.
